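Cells were grown in 96-well plates and exposed to each compound for 48 hours at five concentrations; endpoints were interpolated linearly between bracketing concentrations, or set to the highest concentration if not reached. GI50 marks 50% less growth. The concentration for full growth arrest is given as TGI.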
Tests used:
Assay in all cases: inhibition of tumour cell growth, NCI panel, 48 h
[1] = system: OVCAR-5 ovarian
[2] = system: LOX IMVI melanoma
[3] = system: NCI-H23 lung
[4] = system: MALME-3M melanoma
[5] = system: UO-31 renal
[6] = system: TK-10 renal
[7] = system: HOP-62 NSCLC
[8] = system: K-562 leukemia
[9] = system: UACC-62 melanoma
[10] = system: SF-268 CNS

Structure (SMILES) | TGI [1] | TGI [2] | TGI [3] | TGI [4] | TGI [5] | TGI [6] | TGI [7] | TGI [8] | TGI [9] | TGI [10] | GI50 [1] | GI50 [2] | GI50 [3] | GI50 [4] | GI50 [5] | GI50 [6] | GI50 [7] | GI50 [8] | GI50 [9] | GI50 [10]
NC(=S)N/N=C(/CC(=O)c1ccccc1)C(=O)Nc1ccc(Cl)c(Cl)c1 | > 100 µM | > 100 µM | > 100 µM | > 100 µM | > 100 µM | > 100 µM | > 100 µM | > 100 µM | > 100 µM | > 100 µM | – | – | – | – | – | – | – | – | – | –
CCCCCn1c(=N)n(CC(O)COc2cccc(C)c2)c2ccccc21 (stereo not given) | 25.2 µM | 11.6 µM | 22.5 µM | 6.1 µM | 17.6 µM | 22.4 µM | 25.6 µM | 10.2 µM | 18.5 µM | 23.9 µM | 9.82 µM | 3.25 µM | 6.87 µM | 2.39 µM | 4.03 µM | 10.2 µM | 12 µM | 2.76 µM | 4.85 µM | 10.7 µM
O=C(Cn1ccc(=O)[nH]c1=O)Nc1ccc(C(=O)O)c(O)c1 | > 100 µM | > 100 µM | > 100 µM | > 100 µM | > 100 µM | > 100 µM | > 100 µM | > 100 µM | > 100 µM | > 100 µM | – | – | – | – | – | – | – | – | – | –
CC(=O)NC(CCCNCc1ccccc1)C(=O)NCc1ccccc1 (stereo not given) | > 100 µM | > 100 µM | > 100 µM | > 100 µM | > 100 µM | > 100 µM | > 100 µM | > 100 µM | > 100 µM | > 100 µM | – | – | – | – | – | – | – | – | – | –
CNS(=O)(=O)NN(C)S(=O)(=O)c1ccc(F)cc1 | > 100 µM | > 100 µM | > 100 µM | > 100 µM | > 100 µM | > 100 µM | > 100 µM | > 100 µM | > 100 µM | > 100 µM | – | – | – | – | – | – | – | – | – | –
COc1cccc(NC(=O)CC(=O)N2N=C(N(CCC#N)c3ccc(Cl)cc3)CC2c2ccccc2)c1 (stereo not given) | > 100 µM | > 100 µM | > 100 µM | > 100 µM | > 100 µM | > 100 µM | > 100 µM | > 100 µM | > 100 µM | > 100 µM | – | – | – | – | – | – | – | – | – | –
Cc1ccc(C(=O)O/N=C2/CCC/C2=C\c2ccccc2)cc1 | > 100 µM | > 100 µM | > 100 µM | > 100 µM | > 100 µM | > 100 µM | > 100 µM | > 100 µM | > 100 µM | > 100 µM | – | – | – | – | – | – | – | – | – | –
CN(C(=O)C12C3C4C5C3C1(C(=O)O)C5C42)C(C)(C)C (stereo not given) | > 100 µM | 65.1 µM | > 100 µM | > 100 µM | > 100 µM | > 100 µM | > 100 µM | > 100 µM | > 100 µM | > 100 µM | – | – | – | – | – | – | – | – | – | –
COC(=O)CCC(NC(=S)N/N=C(\C)c1nccs1)C(=O)OC (stereo not given) | > 100 µM | > 100 µM | > 100 µM | > 100 µM | > 100 µM | > 100 µM | > 100 µM | > 100 µM | > 100 µM | > 100 µM | – | – | – | – | – | – | – | – | – | –
Cc1ccc(-c2c(N)[n+]([O-])c3ccccc3[n+]2[O-])cc1 | 32.5 µM | 25.4 µM | 19.5 µM | 10.8 µM | 29.7 µM | 33 µM | 31 µM | > 100 µM | 20.1 µM | 73.8 µM | – | – | – | – | – | – | – | – | – | –
